Entries after “also recorded” stand apart in the source; their conditions may differ. Residues, ends and D or L forms follow the SMILES beside them.
Legend:
[1] = tested on: MPO; test: MPO-catalyzed HOCl production (taurine/TMB assay); type: biochemical
Method: MPO-mediated HOCl Production. MPO (20 nM) was incubated with H2O2 (50 µM), NaCl (150 mM), taurine (5 mM) and increasing concentrations of KYC in phosphate buffer (100 mM, pH 7.4) which also contained diethylene triamine pentaacetic acid (DTPA, 100 µM) to prevent non-specific, divalent metal cation oxidation for 30 min. Reactions were halted by addition of catalase. Chlorotaurine was quantified using the 3,3-,5,5-tetramethylbenzidine (TMB) assay. Briefly, 400 µL of reaction solution was mixed with 100 µL of 2 mM TMB, 100 µM NaI containing 10% dimethylformamide (DMF) in 400 mM acetate buffer (pH 5.4). After 5 min, absorbance (650 nm) was recorded on a UV/Vis spectrophotometer (Agilent Model 8453).
MPO-catalyzed HOCl Production: MPO (20 nM) was incubated with H2O2 (50 µM), NaCl (150 mM), taurine (5 mM) and increasing concentrations of KYC in a phosphate buffer (100 mM, pH 7.4) containing diethylene triamine pentaacetic acid (DTPA, 100 µM) to prevent non-specific, divalent metal cation oxidation for 30 min. Reactions were halted by addition of catalase (2,000 units/mL). Chlorotaurine was quantified using the TMB assay (66). Briefly, 400 µL of reaction solution was mixed with 100 µL of 2 mM TMB, 100 µM NaI containing 10% dimethylformamide (DMF) in 400 mM acetate buffer (pH 5.4). After 5 min, absorbance (650 nm) was recorded on a UV/Vis spectrophotometer (Agilent Model 8453).

[2] = tested on: SCD mice; test: Vasodilatation of pressurized facialis arteries from treated SCD mice; type: in vivo; conditions: IP 0.3 mg/kg/d for 3 weeks; response to ACh; untreated SCD ∼20%
Method: Murine Model of Sickle Cell Disease. Mice treated with KYC in vivo. SCD mice were treated with KYC (intraperitoneal injection: IP 0.3 mg/kg/d) or with PBS (IP 100 µL) for 3 weeks. Anesthesia was induced with Ketamine (100mg/kg) + Xylazine (10mg/kg) cocktail (ip) and then sacrificed by exsanguination. Facialis arteries were atraumatically dissected and maintained in cooled MOPS solution (in mM: NaCl 145, KCL 4.7, CaCl2 2, NaH2PO4 1.2, MgSO4, 1.2, pyruvate 2, EDTA 0.02, MOPS 3.0, and glucose 5.0, at pH 7.4). Vessels were then submerged in a MOPS bath, mounted on MOPS-containing glass capillary tubes, internally pressurized (60 mmHg), and warmed to 37°C. Internal vascular diameters were measured with a calibrated video-microscope (Boeckeler). After the vessel was allowed to acclimate to 37°C (approximately 30 min), the diameter was measured and recorded (Dmax). […] A control dose-response curve using acetylcholine (ACh, 10^-7 - 10^-4 M) was performed and vessel diameter recorded. […] Vasodilation to papaverine (2.0X10^-4 M) was determined after all treatments to ensure smooth muscle viability. Vasodilation was calculated as a percent of maximal vessel diameter change.
Vasodilatation. […] Physiological responses to increasing concentrations of acetylcholine (ACh) were determined by videomicroscopy as previously described.

[3] = tested on: SCD mice; test: Vessel wall thickness of facialis arteries from SCD mice; type: in vivo; conditions: 0.3 mg/kg/d, 3 weeks; after papaverine; P=0.10
Method: Vessel Wall Thickness. After completing the vasodilatation studies, the pressurized vessels were maximally dilated by addition of papaverine (10^-4 mol/L, 4 min), and outside and inside diameters recorded. An index of wall thickness was calculated using the following formula; ([outside diameter/inside diameter]/2)/outside diameter, as previously described.

[4] = tested on: MPO; test: MPO-mediated LDL oxidation (conjugated diene formation, absorbance at 234 nm); type: biochemical; conditions: 25 µM; in the absence of nitrite

In the case of `CC(=O)N[C@@H](CCCCN)C(=O)N[C@@H](Cc1ccc(O)cc1)C(=O)N[C@@H](CS)C(N)=O` [KYC, N-acetyl Lysyltyrosylcysteine amide] (Ac-Lys-Tyr-Cys-NH2), the “MPO-catalyzed HOCl production, comparison at equimolar concentration” value ([1]; 12.5 µM) is reported as “comparable to that of tryptophan; also recorded: significantly more effective at inhibiting MPO-dependent HOCl production than GSH”, the “inhibition of HOCl production” value ([1]; 12.5 µM) is reported as ~75% and the “MPO-dependent HOCl production” value ([1]; 25 µM) is reported as “completely inhibits; also recorded: completely ablated”. For the same molecule, the IC50 ([1]; MPO 20 nM, H2O2 50 µM, NaCl 150 mM, 30 min) was ~7 µM, the “vasodilatation, percent of maximal vessel diameter change” value [2] was ~60% and the vessel wall thickness [3] was “reduces vessel wall thickness”. For the same molecule, the “MPO/H2O2-mediated LDL oxidation” value [4] was “inhibited LDL oxidation; also recorded: did not increase LDL oxidation”.

Reference: patent EP2873675A1, “Peptide-based peroxidase inhibitors and methods of using same” (The Medical College of Wisconsin, Inc., priority 2013, dated 2015)
